# Entries after “also recorded” stand apart in the source; their conditions may differ.
# Columns and labels:
# human P2Y6R = human P2Y6R (Homo sapiens, UniProt Q15077); test: Calcium mobilization; conditions: for fold reduction of P2Y6R potency relative to UDP 1 / P2Y6R activation (in words): calcium mobilization; for P2Y6R activation (in words): hP2Y6R
# [1] = system: 46 receptors, channels and transporters; test: PDSP off-target panel; format: binding
# rat CD73 = conditions: rat CD73, 5 μM AMP substrate, ref Junker et al. [33], cited from earlier work
# hP2Y14R = molecular target: T1, hP2Y14R (Homo sapiens, UniProt Q15391); test: Fluorescent antagonist binding assay by flow cytometry of hP2Y14R-CHO cells
# T1 sequence (Q15391 1-338): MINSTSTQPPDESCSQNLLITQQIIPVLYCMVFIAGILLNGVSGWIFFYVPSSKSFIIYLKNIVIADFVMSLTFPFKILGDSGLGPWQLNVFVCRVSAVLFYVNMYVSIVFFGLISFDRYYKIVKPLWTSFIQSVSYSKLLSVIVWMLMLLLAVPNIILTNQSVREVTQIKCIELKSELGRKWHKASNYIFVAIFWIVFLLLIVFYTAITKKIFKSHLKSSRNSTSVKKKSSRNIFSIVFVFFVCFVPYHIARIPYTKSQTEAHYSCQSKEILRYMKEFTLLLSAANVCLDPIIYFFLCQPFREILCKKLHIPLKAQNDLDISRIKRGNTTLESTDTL
# hP2YR = conditions: cited from earlier work
# hP2Y6R = conditions: read-out: hP2Y6R EC50; cited from earlier work
# P2Y14R = conditions: cited from earlier work
# Chain of human P2Y6R (Q15077 whole entry): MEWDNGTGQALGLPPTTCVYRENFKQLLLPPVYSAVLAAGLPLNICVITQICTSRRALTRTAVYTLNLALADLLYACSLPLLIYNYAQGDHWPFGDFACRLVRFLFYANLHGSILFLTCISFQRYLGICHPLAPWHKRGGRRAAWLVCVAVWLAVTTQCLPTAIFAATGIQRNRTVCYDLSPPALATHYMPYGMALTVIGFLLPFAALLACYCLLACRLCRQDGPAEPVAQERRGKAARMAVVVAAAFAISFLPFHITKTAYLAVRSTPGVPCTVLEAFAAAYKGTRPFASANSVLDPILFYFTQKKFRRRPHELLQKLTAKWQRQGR
compound,measurement,setting,value
CCN(CC)CC.CCN(CC)CC.CO/N=c1/ccn([C@@H]2O[C@H](COP(=O)(O)OP(=O)(O)O)[C@@H](O)[C@H]2O)c(=O)[nH]1 [Compound 11],fold reduction of P2Y6R potency relative to UDP 1,human P2Y6R,12 fold
CCN(CC)CC.CCN(CC)CC.O=c1[nH]/c(=N/OCc2ccccc2)ccn1[C@@H]1O[C@H](COP(=O)(O)OP(=O)(O)O)[C@@H](O)[C@H]1O [Compound 13],fold reduction of P2Y6R potency relative to UDP 1,human P2Y6R,19 fold
"O=c1ccn([C@@H]2O[C@H](COP(=O)(O)CP(=O)(O)O)[C@@H](O)[C@H]2O)c(=S)[nH]1 [Compound 14b, 2-thiouridine-5′-O-(α,β-methylene)diphosphate, reference compound]",off-target activities (significant = >50% binding inhibition at 10 μM),[1],no significant
same,CD73 % inhibition at 1 μM,rat CD73; 1 μM,7%
"CCN(CC)CC.CCN(CC)CC.O=c1[nH]c(=O)n([C@@H]2O[C@H](COP(=O)(O)CP(=O)(O)O)[C@@H](O)[C@H]2O)cc1F [Compound 16, 5-Fluoro-5′-αβ-methylene-UDP]",selectivity between P2Y6R and P2Y14R (in words),hP2Y14R,nonselective
same,IC50,rat CD73; read-out: CD73 IC50,> 1000 nM
O=c1[nH]/c(=N\OCc2ccc(S(F)(F)(F)(F)F)cc2)ccn1[C@@H]1O[C@H](COP(=O)(O)CP(=O)(O)O)[C@@H](O)[C@H]1O [Compound 27],EC50,human P2Y6R,1690 nM
CCN(CC)CC.CCN(CC)CC.O=C(/N=c1/ccn([C@@H]2O[C@H](COP(=O)(O)CP(=O)(O)O)[C@@H](O)[C@H]2O)c(=O)[nH]1)c1ccccc1 [Compound 30],selectivity between P2Y6R and P2Y14R (in words),hP2Y14R,nonselective
CCN(CC)CC.CCN(CC)CC.Cn1c(=O)n([C@@H]2O[C@H](COP(=O)(O)CP(=O)(O)O)[C@@H](O)[C@H]2O)cc/c1=N/OCc1ccccc1 [Compound 37],P2Y6R activation (in words),human P2Y6R,completely prevent P2Y6R activation; also recorded: prevented P2Y6R activation
CCN(CC)CC.CCN(CC)CC.CCn1c(=O)n([C@@H]2O[C@H](COP(=O)(O)CP(=O)(O)O)[C@@H](O)[C@H]2O)cc/c1=N/OCc1ccccc1 [Compound 38],P2Y6R activation (in words),human P2Y6R,completely prevent P2Y6R activation; also recorded: prevented P2Y6R activation
O=c1ccn([C@@H]2O[C@H](COP(=O)(O)CP(=O)(O)O)[C@@H](O)[C@@H]2O)c(=O)[nH]1 [Compound 39],P2Y6R activation (in words),human P2Y6R,completely prevent P2Y6R activation; also recorded: prevented P2Y6R activation
O=c1cnn([C@@H]2O[C@H](COP(=O)(O)CP(=O)(O)O)[C@@H](O)[C@H]2O)c(=O)[nH]1 [Compound 40],P2Y6R activation (in words),human P2Y6R,completely prevent P2Y6R activation; also recorded: prevented P2Y6R activation
O=c1ccn([C@@H]2O[C@H](COP(=O)(O)O)[C@@H](O)[C@H]2O)c(=O)[nH]1 [UMP],activation of hP2YRs (in words),hP2YR,does not activate any hP2YR
O=c1ccn([C@@H]2O[C@H](COP(=O)(O)OP(=O)(O)OP(=O)(O)O)[C@@H](O)[C@H]2O)c(=O)[nH]1 [UTP],EC50,hP2Y6R,> 10000 nM
same,P2Y14R activity (in words),P2Y14R,inactive
